The test system of data set [1] is Staphylococcus aureus. Nature of the data set: Growth inhibition of Staphylococcus aureus ATCC 25923 by microdilution method. The class given is organism-based. Particulars: in vivo. Background: Broth dilution looks for growth in wells or tubes with falling amounts of substance.
The test system of data set [2] is Staphylococcus aureus. As to the kind of experiment: Growth inhibition of Staphylococcus aureus SA-1199 expressing wild type norA by microdilution method. Particulars: in vivo. The format is organism-based.
For data set [3], the target named is T1, Quinolone resistance protein NorA (Staphylococcus aureus) (UniProt P0A0J7).
T1 sequence (whole entry): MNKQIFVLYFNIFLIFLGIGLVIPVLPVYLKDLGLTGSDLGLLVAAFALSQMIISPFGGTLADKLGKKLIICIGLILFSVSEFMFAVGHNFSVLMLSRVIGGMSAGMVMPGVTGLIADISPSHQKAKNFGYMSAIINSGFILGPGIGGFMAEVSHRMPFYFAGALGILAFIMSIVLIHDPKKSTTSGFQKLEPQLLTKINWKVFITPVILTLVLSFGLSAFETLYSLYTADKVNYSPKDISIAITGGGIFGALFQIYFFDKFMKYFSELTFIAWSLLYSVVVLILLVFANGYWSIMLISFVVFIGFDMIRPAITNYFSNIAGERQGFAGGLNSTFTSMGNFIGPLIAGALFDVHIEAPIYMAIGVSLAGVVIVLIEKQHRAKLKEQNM
Nature of the data set: Inhibition of Staphylococcus aureus SA-1199B NorA assessed as reduction in EtBr efflux at 50 uM measured over 5 mins by fluorescence assay relative to control.

The subject of data set [4] is Staphylococcus aureus. Nature of the data set: Growth inhibition of Staphylococcus aureus ATCC 25923 up to 100 ug/ml in presence of ciprofloxacin by checkerboard assay. The class given is organism-based. As to conditions: in vivo.
The target of data set [5] is T1, Quinolone resistance protein NorA (Staphylococcus aureus). Nature of the data set: Inhibition of Staphylococcus aureus SA-1199 norA assessed as potentiation of ciprofloxacin-induced antibacterial activity up to 100 ug/ml by checkerboard method.
For data set [6] the target is unchanged. Nature of the data set: Inhibition of Staphylococcus aureus SA-1199B NorA assessed as potentiation of ciprofloxacin-induced antibacterial activity by measuring minimum potetntiation concentration causing 4 fold reduction in ciprofloxacin MIC by ciprofloxacin assay.
Data set [7] in a line: Cytotoxicity against human HepG2 cells assessed as reduction in cell number after 24 hrs by bioluminescence assay. The class given is cell-based.
A short description of data set [8]: Selectivity index, ratio of CC50 for human HepG2 cells to compound effect for inhibition of Staphylococcus aureus SA-1199B NorA assessed as potentiation of ciprofloxacin-induced antibacterial activity by measuring minimum potetntiation concentration causing 4 fold reduction in ciprofloxacin MIC. The format is toxicity. Particulars: read-out: Selectivity Index.

Data set [9] concerns the target T1, Quinolone resistance protein NorA (Staphylococcus aureus). As to the kind of experiment: Potency index, ratio of reserpine IC50 to test compound IC50 for Staphylococcus aureus SA-1199B NorA assessed as reduction in EtBr efflux.
Data set [10] relates to Staphylococcus aureus. As to the kind of experiment: Growth inhibition of Staphylococcus aureus SA-1199B expressing wild type norA and co-expressing GrlA A116E mutant by microdilution method. As to conditions: in vivo. The class given is organism-based.
Data set [11] concerns the target T2, Quinolone resistance protein NorA (Staphylococcus aureus, UniProt P0A0J7).
T2 sequence (P0A0J7 whole entry): T1 sequence (whole entry)
Nature of the data set: Inhibition of Staphylococcus aureus SA-1199B NorA assessed as reduction in EtBr efflux measured over 5 mins by fluorescence assay.

Converted amounts (≈) assume the structure as drawn. The source made the active and inactive calls. No cut-off for these calls is given here.

For orientation: inhibition means the drop in the measured response relative to a control, in per cent. Broadly, the CC50 is the concentration giving 50% cytotoxicity. For orientation: IC50 means the concentration needed to halve the response being measured.

On to `CCCOc1ccc(-c2cc(OCCN(CC)CC)c3cc(OCc4ccccc4)ccc3n2)cc1`, for which the MIC against Staphylococcus aureus [1] and in the data set on Staphylococcus aureus [2] was over 100 µg/mL throughout. In addition, in data set [3], the inhibition came out at 91.1%. Besides, the “growth inhibition (GI)” value in the data set on Staphylococcus aureus [4] is recorded as “Non-Toxic”. Besides, the outcome in data set [5] was inactive. For the same compound, the Activity in data set [6] was found to be 0.78 µg/mL. The CC50 at 24 h in data set [7] came out at 12.3 µg/mL (≈ 25.3 µM). In [8], the selectivity ratio turned out to be 15.7. The Ratio IC50 in [9] is 2.
As for `CCCOc1ccc(-c2cc(OCCN(CC)CC)c3cc(OCCCN4CCOCC4)ccc3n2)cc1`, the results for the MIC against Staphylococcus aureus [1], with Staphylococcus aureus [2] and against Staphylococcus aureus [10] were 100 µg/mL (≈ 192 µM), over 100 µg/mL and over 191.7 µM, respectively. Moreover, the inhibition in [3] was 91.1%. Further, the IC50 in [11] was determined as 5 µM. Also, the “growth inhibition (GI)” value with Staphylococcus aureus [4] is “Non-Toxic”. Also, the result in data set [5] was inactive. Further, in data set [6], the Activity was determined as 12.5 µg/mL. In [9], the Ratio IC50 was 2.
Take `CCCOc1ccc(-c2cc(OCCN3CCCCC3)c3cc(OCc4ccccc4)ccc3n2)cc1`: the MIC in the data set with Staphylococcus aureus [1] and against Staphylococcus aureus [2] was 100 µg/mL (≈ 201 µM) throughout. In addition, the inhibition in data set [3] worked out at 76.3%. Also, in the data set on Staphylococcus aureus [4], the “growth inhibition (GI)” value is “Non-Toxic”. In data set [5], the result was inactive. The Activity in data set [6] turned out to be 0.78 µg/mL. For the same compound, in data set [7], the CC50 at 24 h stood at 33.8 µg/mL (≈ 68.1 µM). The selectivity ratio in data set [8] was determined as 43.4. In data set [9], the Ratio IC50 is 2.
As for `CCCOc1ccc(-c2cc(OCCN(CC)CC)c3cc(OCCN(CC)CC)ccc3n2)cc1`, the MIC with Staphylococcus aureus [1] was 100 µg/mL (≈ 203 µM); against Staphylococcus aureus [2], over 100 µg/mL; in the data set with Staphylococcus aureus [10] it was over 202.6 µM. Besides, in [3], the inhibition is 81.4%. Besides, in data set [11], the IC50 is 10.6 µM. For the same compound, the “growth inhibition (GI)” value with Staphylococcus aureus [4] is recorded as “Non-Toxic”. The result in data set [5] was inactive.
With `CCCOc1ccc(-c2cc(OCCN(CC)CC)c3cc(OCCN4CCCCC4)ccc3n2)cc1`, the MIC entry in the data set on Staphylococcus aureus [1] and in the data set on Staphylococcus aureus [2] was “Nd(Insoluble)” in each case. The “growth inhibition (GI)” value in the data set with Staphylococcus aureus [4] is recorded as “Non-Toxic”. Moreover, the result in data set [5] was inactive.
As for `CCCOc1ccc(-c2cc(OCCN3CCCCC3)c3cc(O)ccc3n2)cc1`, the figures for the MIC in the data set on Staphylococcus aureus [1], with Staphylococcus aureus [2] and in the data set with Staphylococcus aureus [10] were 25 µg/mL (≈ 61.5 µM), 25 µg/mL (≈ 61.5 µM) and 61.5 µM, respectively. Besides, in data set [3], the inhibition turned out to be 87%. Moreover, in [11], the IC50 amounted to 3.3 µM. Moreover, the “growth inhibition (GI)” value in the data set with Staphylococcus aureus [4] was “Non-Toxic”. Further, the result in data set [5] was inactive. The Activity in data set [6] was 6.25 µg/mL. Further, the Ratio IC50 in data set [9] came to 2.
Consider `CCCOc1ccc(-c2cc(OCCN3CCCCC3)c3cc(OCCN4CCCCC4)ccc3n2)cc1`, for which the MIC result in the data set on Staphylococcus aureus [1] and in the data set on Staphylococcus aureus [2] was “Nd(Insoluble)” each time. Also, the “growth inhibition (GI)” value with Staphylococcus aureus [4] is given as “Non-Toxic”. For the same compound, the result in data set [5] was inactive.
Turning to `COC(=O)[C@H]1[C@H]2C[C@@H]3c4[nH]c5cc(OC)ccc5c4CCN3C[C@H]2C[C@@H](OC(=O)c2cc(OC)c(OC)c(OC)c2)[C@@H]1OC` [RESERPINE], the figures for the MIC in the data set on Staphylococcus aureus [1], in the data set with Staphylococcus aureus [2] and with Staphylococcus aureus [10] were over 100 µg/mL, over 100 µg/mL and over 164 µM, respectively. In addition, the IC50 in data set [11] is 9.2 µM. Besides, the Activity in data set [6] was 1.56 µg/mL.
In the case of `CCCOc1ccc(-c2cc(OCCN3CCCCC3)c3cc(OCCCN(C)C)ccc3n2)cc1`, the MIC against Staphylococcus aureus [1] was determined as 100 µg/mL (≈ 203 µM); against Staphylococcus aureus [2], 100 µg/mL (≈ 203 µM); in the data set with Staphylococcus aureus [10], 203.4 µM. In addition, the inhibition in data set [3] was determined as 92.5%. Besides, in data set [11], the IC50 turned out to be 7.2 µM. The “growth inhibition (GI)” value with Staphylococcus aureus [4] is on record as “Non-Toxic”. In addition, the outcome in [5] was inactive. In data set [6], the Activity was determined as 6.25 µg/mL.
As to `CCCOc1ccc(-c2cc(OCCN3CCCCC3)c3cc(OCCCN4CCOCC4)ccc3n2)cc1`, the figures for the MIC in the data set with Staphylococcus aureus [1], with Staphylococcus aureus [2] and in the data set with Staphylococcus aureus [10] were 100 µg/mL (≈ 187 µM), 50 µg/mL (≈ 93.7 µM) and 93.7 µM, respectively. In addition, the inhibition in data set [3] turned out to be 93.2%. The IC50 in [11] worked out at 4.4 µM. Besides, the “growth inhibition (GI)” value in the data set with Staphylococcus aureus [4] is recorded as “Non-Toxic”. For the same compound, the result in data set [5] was inactive. In [6], the Activity was found to be 6.25 µg/mL. Also, the Ratio IC50 in data set [9] came out at 2.
`CCCOc1ccc(-c2cc(OCCN(CC)CC)c3cc(O)ccc3n2)cc1`: the figures for the MIC with Staphylococcus aureus [1], in the data set with Staphylococcus aureus [2] and in the data set with Staphylococcus aureus [10] were 50 µg/mL (≈ 127 µM), 50 µg/mL (≈ 127 µM) and 126.7 µM, respectively. Further, in data set [3], the inhibition was 95%. The IC50 in [11] came out at 5.8 µM. The “growth inhibition (GI)” value in the data set on Staphylococcus aureus [4] is “Non-Toxic”. The result in [5] was inactive. The Activity in [6] came out at 1.56 µg/mL. For the same compound, the Ratio IC50 in data set [9] was determined as 2.
For the compound `CCCOc1ccc(-c2cc(OCCN3CCCCC3)c3ccccc3n2)cc1`, the IC50 in [11] is 7.3 µM. Further, in [6], the Activity came out at 1.56 µg/mL. In [7], the CC50 at 24 h came to 38.9 µg/mL (≈ 99.6 µM). Moreover, the selectivity ratio in data set [8] turned out to be 24.9.
The like results for `CCCOc1ccc(-c2cc(OCCN(CC)CC)c3ccccc3n2)cc1` were, in that order, 8.9 µM, 6.25 µg/mL, 21.6 µg/mL (≈ 57 µM) and 3.5.
In the case of `CCCOc1ccc(-c2cc(OCCN(CC)CC)c3cc(OCCCN(C)C)ccc3n2)cc1`, the results for the MIC against Staphylococcus aureus [1], in the data set on Staphylococcus aureus [2] and in the data set with Staphylococcus aureus [10] were 100 µg/mL (≈ 208 µM), over 100 µg/mL and over 208.5 µM, respectively. The inhibition in [3] worked out at 80.9%. In addition, the IC50 in data set [11] was 8.8 µM. Further, in the data set on Staphylococcus aureus [4], the “growth inhibition (GI)” value is “Non-Toxic”. The result in data set [5] was inactive.
Turning to `O=C(O)c1cn(C2CC2)c2cc(N3CCNCC3)c(F)cc2c1=O` [CIPROFLOXACIN], the MIC was determined as 0.63 µg/mL (≈ 1.9 µM) against Staphylococcus aureus [1], 0.63 µg/mL (≈ 1.9 µM) with Staphylococcus aureus [2] and 10 µg/mL against Staphylococcus aureus [10].
For the compound `CCCOc1ccc(-c2cc(OCCN3CCCCC3)c3cc(OCCN(CC)CC)ccc3n2)cc1`, the figures for the MIC with Staphylococcus aureus [1], in the data set on Staphylococcus aureus [2] and against Staphylococcus aureus [10] were 100 µg/mL (≈ 198 µM), 100 µg/mL (≈ 198 µM) and 197.7 µM, respectively. In addition, the inhibition in data set [3] is 91.4%. Further, the IC50 in [11] stood at 5.2 µM. In addition, in the data set with Staphylococcus aureus [4], the “growth inhibition (GI)” value is “Non-Toxic”. The outcome in data set [5] was inactive. Moreover, the Activity in data set [6] came out at 25 µg/mL. Moreover, the Ratio IC50 in [9] is 2.
